Laboratory results published in ChEMBL document CHEMBL4616621, “Pro-apoptotic carboxamide analogues of natural fislatifolic acid targeting Mcl-1 and Bcl-2” (Bioorg Med Chem Lett, 2020).

How the values were obtained:
Bcl-2-like protein 1 = Bcl-2-like protein 1 (Homo sapiens, UniProt Q07817); assay: Inhibition of Bcl-xL (unknown origin)/Bak interaction preincubated for 5 mins followed by fluorescein-labeled peptide addition and measured after 10 mins by fluorescein-labeled peptide displacement based fluorescence polarization assay
MCF7 = assay: Antiproliferative activity against human MCF7 cells assessed as cell death; format: functional, cell-based
A549 = assay: Antiproliferative activity against human A549 cells assessed as cell death; format: functional, cell-based
[1] = biological target: Apoptosis regulator Bcl-2 (Homo sapiens, UniProt P10415); assay: Inhibition of Bcl2 (unknown origin)/Bim interaction preincubated for 5 mins followed by fluorescein-labeled peptide addition and measured after 10 mins by fluorescein-labeled peptide displacement based fluorescence polarization assay
[2] = biological target: Induced myeloid leukemia cell differentiation protein Mcl-1 (Homo sapiens, UniProt Q07820); assay: Inhibition of Mcl-1 (unknown origin)/Bid interaction preincubated for 5 mins followed by fluorescein-labeled peptide addition and measured after 10 mins by fluorescein-labeled peptide displacement based fluorescence polarization assay
Induced myeloid leukemia cell differentiation protein Mcl-1, sequence (Q07820 whole entry): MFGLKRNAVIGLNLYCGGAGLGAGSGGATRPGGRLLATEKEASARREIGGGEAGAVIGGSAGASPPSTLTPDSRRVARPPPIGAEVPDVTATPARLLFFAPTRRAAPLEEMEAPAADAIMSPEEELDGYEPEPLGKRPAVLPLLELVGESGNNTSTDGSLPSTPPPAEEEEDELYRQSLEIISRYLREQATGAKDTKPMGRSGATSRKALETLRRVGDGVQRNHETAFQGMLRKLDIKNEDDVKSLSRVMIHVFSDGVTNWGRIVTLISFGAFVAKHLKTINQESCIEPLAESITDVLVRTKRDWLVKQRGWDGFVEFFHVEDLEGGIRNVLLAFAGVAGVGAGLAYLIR

Apoptosis regulator Bcl-2, sequence (P10415 whole entry): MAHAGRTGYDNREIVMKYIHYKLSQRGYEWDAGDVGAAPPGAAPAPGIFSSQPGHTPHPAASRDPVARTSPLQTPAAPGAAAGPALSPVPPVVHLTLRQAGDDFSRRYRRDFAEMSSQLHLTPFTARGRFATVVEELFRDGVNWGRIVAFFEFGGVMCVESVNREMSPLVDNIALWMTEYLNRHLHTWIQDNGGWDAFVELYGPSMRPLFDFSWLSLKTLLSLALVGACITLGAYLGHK
Bcl-2-like protein 1, sequence (Q07817 whole entry): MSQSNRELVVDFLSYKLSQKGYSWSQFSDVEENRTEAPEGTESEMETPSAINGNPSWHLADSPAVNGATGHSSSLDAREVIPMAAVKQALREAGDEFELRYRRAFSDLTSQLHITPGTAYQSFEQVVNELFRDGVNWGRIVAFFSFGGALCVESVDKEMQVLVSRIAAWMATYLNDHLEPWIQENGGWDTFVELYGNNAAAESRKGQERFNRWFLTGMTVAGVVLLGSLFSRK

| Structure (SMILES) | Ki (Bcl-2-like protein 1) [µM] | Ki [1] [µM] | Ki [2] [µM] | IC50 (MCF7) [µM] | IC50 (A549) [µM] |
| --- | --- | --- | --- | --- | --- |
| CON(C)C(=O)[C@H]1CC=C(CCC=C(C)C)C[C@@H]1c1ccccc1 | > 23 | 0.3 | 0.9 | 42.1 | 31.2 |
| CC(C)=CCCC1=CC[C@@H](C(=O)Nc2ccc(O)cc2)[C@H](c2ccccc2)C1 | > 23 | > 23 | > 33 |  |  |
| CC(C)=CCCC1=CC[C@H](C(=O)NCCC(=O)O)[C@@H](c2ccccc2)C1 | > 23 | > 23 | > 33 |  |  |
| COc1ccc(NC(=O)[C@@H]2CC=C(CCC=C(C)C)C[C@H]2c2ccccc2)cc1 | > 23 | > 23 | > 33 |  |  |
| CONC(=O)[C@@H]1CC=C(CCC=C(C)C)C[C@H]1c1ccccc1 | > 23 | 2.7 | > 33 |  |  |
| CC(C)=CCCC1=CC[C@@H](C(=O)N(C)O)[C@H](c2ccccc2)C1 | > 23 | 2.3 | 9.2 |  |  |
| CC1(C)CCCC2=C1C[C@H](C(=O)O)[C@@H](c1ccccc1)C2 | > 23 | > 23 | 9 |  |  |
| COC(=O)c1ccc(NC(=O)[C@H]2CC=C(CCC=C(C)C)C[C@@H]2c2ccccc2)cc1 | > 23 | > 23 | > 33 |  |  |
| COC(=O)CCNC(=O)[C@@H]1CC=C(CCC=C(C)C)C[C@H]1c1ccccc1 | > 23 | > 23 | 15 |  |  |
| CC(C)=CCCC1=CC[C@@H](C(=O)NCCC(=O)O)[C@H](c2ccccc2)C1 | > 23 | > 23 | > 33 |  |  |
| CC(C)=CCCC1=CC[C@@H](C(=O)Nc2ccc(C(=O)O)cc2)[C@H](c2ccccc2)C1 | > 23 | 2.2 | > 33 |  |  |
| CC(C)=CCCC1=CC[C@H](C(N)=O)[C@@H](c2ccccc2)C1 | > 23 | > 23 | > 33 |  |  |
| CCCCCC[C@H]1C(=O)O[C@H](C)[C@H](NC(=O)c2cccc(NC=O)c2O)C(=O)O[C@@H](C)[C@@H]1OC(=O)CC(C)C [ANTIMYCIN A] |  |  |  |  | 6.5 |

Continued, in another order:

| Ki (Bcl-2-like protein 1) [µM] | Ki [1] [µM] | Ki [2] [µM] | Structure (SMILES) | IC50 (MCF7) [µM] | IC50 (A549) [µM] |
| --- | --- | --- | --- | --- | --- |
| 5.7 | > 23 | 4 | CC(C)=CCCC1=CC[C@H](C(=O)O)[C@@H](c2ccccc2)C1 | 64.3 | 53.7 |
| > 23 | 2.1 | 7.2 | CC(C)=CCCC1=CC[C@H](C(=O)N(C)O)[C@@H](c2ccccc2)C1 |  |  |
| > 23 | > 23 | > 33 | CC1(C)CCCC2=C1C[C@@H](C(=O)O)[C@H](c1ccccc1)C2 |  |  |
| > 23 | > 23 | 18.9 | CON(C)C(=O)[C@H]1CC2=C(CCCC2(C)C)C[C@@H]1c1ccccc1 |  |  |
| 17.4 | 0.7 | 8.2 | CC(C)=CCCC1=CC[C@@H](C(=O)NO)[C@H](c2ccccc2)C1 |  |  |
| > 23 | > 23 | > 33 | CON(C)C(=O)[C@@H]1CC=C(CCC=C(C)C)C[C@H]1c1ccccc1 |  |  |
| 19 | 0.6 | 7.3 | CC(C)=CCCC1=CC[C@H](C(=O)NO)[C@@H](c2ccccc2)C1 | 72.3 | 71.7 |
| > 23 | > 23 | > 33 | CC(C)=CCCC1=CC[C@H](C(=O)Nc2ccc(O)cc2)[C@@H](c2ccccc2)C1 | 66.7 | 66.8 |
| 9.6 | > 23 | 8.6 | CC(C)=CCCC1=CC[C@@H](C(=O)O)[C@H](c2ccccc2)C1 |  |  |
| > 23 | > 23 | 15 | CON(C)C(=O)[C@@H]1CC2=C(CCCC2(C)C)C[C@H]1c1ccccc1 |  |  |
| > 23 | > 23 | > 33 | COc1ccc(NC(=O)[C@H]2CC=C(CCC=C(C)C)C[C@@H]2c2ccccc2)cc1 |  |  |
| > 23 | > 23 | > 33 | COC(=O)c1ccc(NC(=O)[C@@H]2CC=C(CCC=C(C)C)C[C@H]2c2ccccc2)cc1 |  |  |
| > 23 | > 23 | > 33 | CC(C)=CCCC1=CC[C@@H](C(=O)N(C)C)[C@H](c2ccccc2)C1 |  |  |
| > 23 | > 23 | 8.5 | CC(C)=CCCC1=CC[C@H](C(=O)Nc2ccc(C(=O)O)cc2)[C@@H](c2ccccc2)C1 |  |  |
| > 23 | 2.4 | 16.6 | CONC(=O)[C@H]1CC=C(CCC=C(C)C)C[C@@H]1c1ccccc1 | 45.2 | 42.2 |
| > 23 | 3.1 | 5.5 | COC(=O)CCNC(=O)[C@H]1CC=C(CCC=C(C)C)C[C@@H]1c1ccccc1 | 96.8 | 87.9 |
| 20.1 | > 23 | 5.4 | CC(C)=CCCC1=CC[C@H](C(=O)N(C)C)[C@@H](c2ccccc2)C1 |  |  |
| > 23 | > 23 | > 33 | CC(C)=CCCC1=CC[C@@H](C(N)=O)[C@H](c2ccccc2)C1 |  |  |
